# From paper PMC11467779, “New anti-ovarian cancer quinolone derivatives acting by modulating microRNA processing machinery” (RSC Medicinal Chemistry, 2024)
# What was measured:
# [1] = test system: WT HCCLM3 cells; assay: Antiproliferative effect on WT HCCLM3 cells (CCK-8); assay type: cell-based, human; conditions: 30 μM, 48 hours
# Description: HCCLM3 and SK-Hep-1 cells were seeded into 96-well plates at a density of 10 000 cells per well and allowed to adhere overnight. Subsequently, the cells were treated with the following substances: 0.1% DMSO as the negative control, various concentrations of the test compounds, and 125 μM enoxacin as the positive control. After 48 h of incubation, the original culture medium was removed, and the cells were washed twice with PBS. Then, 100 μL of DMEM culture medium containing 10% CCK-8 (Bimake, USA) was added to each well. The plates were incubated for 30 minutes at 37 °C. To determine the […], measurements were taken at a wavelength of 450 nm using a Varioskan from Thermo Fisher Scientific.
# [2] = test system: A2780; assay: Antiproliferative effect against A2780 (GI50); assay type: cell-based; conditions: Homo sapiens, 72 hours of treatment, cell count
# Description: (§1) SKOV-3, A2780 and A2780 CIS were cultured and maintained, as previously described,[50] at 37 °C in RPMI 1640 medium (Euroclone) supplemented with 10% fetal bovine serum (FBS; Euroclone), L-glutamine and penicillin/streptomycin (SIGMA-ALDRICH). OVCA433, HEK-293T, HeLa, HCCLM3, SK-Hep-1, MCF-7, A549 and HCT-116 cells were maintained in DMEM medium (Euroclone) containing 10% FBS (Euroclone), L-glutamine and penicillin/streptomycin (SIGMA-ALDRICH). Wi-38 cells were cultured in DMEM medium (Euroclone) supplemented with 10% FBS (Euroclone), L-glutamine and penicillin/streptomycin (SIGMA-ALDRICH), and 1% non-essential amino acids (NEAA; Euroclone). The cultures were maintained in a constant temperature incubator at 37 °C with 5% CO2. […] Once cell adhesion had been promoted, the compounds were added to the culture medium. After 72 hours of treatment, the cells were counted, and the data analyzed by linear regression. Each experiment was carried out three times in triplicate and three separate cell counts were made for each sample. […] Afterwards, the concentration range was narrowed to the relative value obtained in the first evaluation in order to obtain an accurate value.
# [3] = Cytotoxicity against non-tumor Wi-38 cells (CC50, cell count); assay type: cell-based; conditions: human, Wi-38 cells (non-tumor), 50% cytotoxicity concentration, 72 hours of treatment
# Description: as §1
# [4] = test system: A2780 cells; assay: A2780 cell number, cell death and apoptosis markers (trypan blue, Western blot); assay type: cell-based, human
# From the text: […] […] Total cell number and viability have been assessed using Trypan Blue Solution (Thermo Fisher Scientific) and Countess™ 3 Automated Cell Counter (Thermo Fisher Scientific).
# Lysates were loaded on 4–12% bis–tris-acrylamide gel (Life Technologies) and transferred to a nitrocellulose membrane. The membrane was blocked in 5% milk and hybridized with α-TRBP (15753-1-AP Proteintech), α-GAPDH (sc-25778, Santa Cruz Biotechnology), α-c-PARP (Bioss Antibodies, BSM-52408R), α-BCLXL (mAb #2764, Cell Signaling Technology) and α-β-actin (A3854, Sigma) antibodies. All the images were captured using the ChemiDocTM Touch Imaging System (Bio-Rad), and the densitometric analyses were performed using the associated Image Lab software (Bio-Rad).
# [5] = test system: SKOV-3 cells; assay: SKOV-3 cell number, cell death and apoptosis markers (trypan blue, Western blot); assay type: cell-based, human; conditions: 30 μM, 72 hours
# [6] = test system: shRNA to siRNA maturation (GAPDH mRNA); assay: RNAi enhancing activity (shRNA to siRNA maturation, GAPDH mRNA in HEK-293T_shGAPDH); assay type: cell-based, human; conditions: 50 μM, 48 hours
# Description: HEK-293T_shSCR and HEK-293T_shGAPDH were treated with 50 μM of enoxacin and 33 for 48 hours before RNA extraction and expression analysis.
# Lentiviral particles were produced by calcium phosphate transient transfection of HEK-293T cells with specific lentiviral plasmids (shGAPDH: TRCN0000445616 and shSCR: TRCN0000015937 from SIGMA-ALDRICH) together with the packaging plasmids (pLP1and pLP2) and the envelope plasmid pLP/VSVG. For each lentiviral plasmid one 150 mm plate of HEK293T cells was used for transfection. After 14–16 hours the medium was replaced with complete medium supplemented with 1 mM sodium butyrate (SIGMA-ALDRICH). The collection of medium containing lentiviral particles occurs 48 h and 72 h after transfection; complete medium supplemented with sodium butyrate was added after the first collection. […]
# Total RNA was extracted using the Direct-zol RNA MiniPrep kit (Zymo Research) with on-column DNase treatment, according to the manufacturer's instructions. Reverse transcription was carried out with SuperScript VILO cDNA Synthesis Kit (Life Technologies) and the cDNA samples were analyzed by qRT-PCR using PowerUp SYBR Green Master Mix (Thermo Fisher Scientific). For miR-21 expression analysis total RNA was retrotranscribed using miRCURY® LNA® RT Kit (Qiagen) and the cDNA was analyzed by using miRCURY® LNA® miRNA PCR Assay (Qiagen). […]
# [7] = test system: miR-21-5p biogenesis; assay: miR-21-5p luciferase reporter (psi-R21 / psi-CTRL) in HeLa cells; assay type: cell-based, human
# Description: HeLa cells were transfected with 10 ng of psi-R21 or psi-CTRL using Lipofectamine™ 2000 (Thermo Fisher Scientific) and after 48 hours were treated with either enoxacin or 33 at 20 μM and 50 μM. After 6 hours Renilla luciferase (RLuc) and firefly luciferase (FLuc) activities were measured using the Dual-Luciferase® Reporter Assay System (Promega), following the manufacturer's instructions, and GloMax® Discover Microplate Reader (Promega).
# The binding site for miR-21 was cloned into psiCHECK™-2 Vector (Promega), downstream the Renilla cDNA, by inverted PCR using the following oligonucleotides: 21MRE_FW […]; 21MRE_REV […]. The resulting construct was named psi-R21.
smiles,measurement,setting,value
"O=C(O)c1cn(C2CC2)c2cc(N3CCc4ccccc4C3)c(F)cc2c1=O [Compound 33, 1-Cyclopropyl-7-(3,4-dihydroisoquinolin-2(1H)-yl)-6-fluoro-4-oxo-1,4-dihydroquinoline-3-carboxylic acid]",reduction of viability of WT HCCLM3 cells,[1],about 50%
same,GI50,[2],18.1 ± 8.25 µM
same,CC50 at 72 h,[3],143 ± 42.7 µM
same,Bcl-XL protein in A2780 cells,"[4]; 30 μM, 72 hours, Western blot",downregulation
same,cleaved PARP1 (c-PARP) levels in A2780 cells,"[4]; 30 μM, 72 hours, Western blot",increased levels of cleaved PARP1
same,percentage of dead A2780 cells,"[4]; 30 μM, 72 hours, trypan blue",increased to a great extent
same,total number of A2780 cells,"[4]; 30 μM, 72 hours, trypan blue",greatly reduced
same,effect of 33 in combination with cisplatin on A2780 proliferation,"[4]; 33 30 μM + cisplatin 1 μM, 48 hours",more pronounced inhibitory effect on A2780 proliferation
same,c-PARP and Bcl-XL in SKOV-3 cells,[5]; Western blot,No changes
same,total number of SKOV-3 cells,[5]; trypan blue,greatly reduced
same,RNAi enhancing effect (GAPDH mRNA decrease),[6],modest but significant RNAi enhancing effect
same,"miRNA enhancing effect: Renilla luciferase activity, psi-R21 construct","[7]; 50 μM, 6 hours",decrease in Renilla luciferase activity
same,"Renilla luciferase activity, control construct psi-CTRL",[7]; construct lacking the miR-21-5p binding site,no significant variation
